{"source": "patent EP1283052A1", "about": "“Pharmaceutical composition containing caspase-8 and /or caspase-9 useful for overcoming glucocorticoid- and cancer therapy-induced apoptosis of tumours” (Deutsches Krebsforschungszentrum Stiftung des öffentlichen …, priority 2001, dated 2003)", "test_system": "P5 cells", "assay": "P5 xenografts in nude mice, intratumoural therapy, tumour volume", "assay_type": "in vivo", "details": "Fig. 7", "method": "P5 cells were injected subcutaneously in nude mice. At a tumour volume of 500 mm^3 therapy was started (day 0) and repeated at day 2 and 12 as indicated by arrows. A total volume of 100 µl in PBS was injected intratumoural containing liposomes and cisplatin (5mg/kg), or liposomes with cisplatin and a mixture of recombinant caspase-8 and -9 proteins (10 U each) and pcDNA3caspase-8 and pcDNA3caspase-9 expression vectors (10 µg each) in the absence (CIS) or presence of DEX (DEX/CIS), (DEX/CIS/CASPASES) in the drinking water (0.28 mg/L). As controls, tumour growth of xenografts from untreated mice (CO) or from mice which received liposomes and empty pcDNA3 expression vector only (CO/Liposomes) was determined. The tumour volume in each animal was measured every second day for a period of 16 days. […]\n• (A) Cell culture. […] The mice were given 0.28 mg/L DEX in drinking water, and the amount of water consumed was monitored. […] The tumour volumes were measured using callipers, and calculated using, as an approximation, the formula for volume of a hemi-ellipsoid: π(width^2 x length)/6. […] Early apoptotic changes were identified by staining of cells with fluoresceinthiocyanate (FITC)-conjugated annexin V and propidium iodide (Becton Dickinson, Heidelberg, Germany) and analysed by flow cytometry (FACScan, Becton Dickinson) as described (Herr et al., EMBO J. 16 (1997), 6200-6208) • (E) Immunohistochemistry. […]"}
{"compound": "N.N.[Cl][Pt][Cl]", "note": "[cisplatin]", "values": [{"measurement": "tumour growth", "setting": "cisplatin 5mg/kg with liposomes intratumoural, day 0, 2 and 12, initial phase", "value": "initially reduced"}, {"measurement": "tumour growth", "setting": "cisplatin-treated tumours at day 10 after treatment", "value": "developed resistance and started to grow"}]}
